Laboratory results: patent US6344457B1, “Amino acid derivatives inhibiting extracellular matrix metalloproteinase and TNF alpha release” (Chiesi Farmaceutici S.p.A., priority 1997, dated 2002)

Assays:
[1] = system: release of TNF from the peritoneal macrophages of mice stimulated by LPS; assay: Inhibition of the production of TNF in vitro; format: cell-based; details: Peritoneal macrophage; mouse peritoneal macrophages, LPS 100 ng/ml; read-out: C150 (μM) TNF
Protocol: The capacity of the compounds according to this invention to inhibit the release of TNF was determined from the peritoneal macrophages of mice stimulated by LPS (Lang, F., Robert, […], Petit, J. Y., J. Pharmacol. Exp. Ther., 275, 171-176, 1995). After an adhesion phase of 2 hours, the cells were treated for 1 hour with the compound to be tested at concentrations ranging between 10^-6 to 10^-9 M (the inhibitor is dissolved in DMSO at 10^-2 M, then at 5.10^-3 M in RPMI 1640 with 5% SVF, then diluted successively by tenths in the same medium), then stimulated by the addition of LPS (100 ng/ml in final concentration). Three hours later, the biological activity of the TNF in the supernatants was determined by a cytotoxicity test using the murine stock L929 in accordance with the operating procedure described by Band, G., Lin, […]., Evans, C. H. (Bioch. Biophys. Acta, 1134, 309-318, 1982). The pg/ml concentration of the TNF of the samples was determined from a murine αTNF standard curve, thus making it possible to define the inhibiting concentration […] of the compounds studied.

[2] = biological target: T1, collagenase of the human monocytic stock U937 (Homo sapiens, UniProt P03956); assay: Activity on collagenase; format: biochemical; details: radiomarked collagen, 27° C., 16 hours; read-out: C150 (nM) collagenase
T1 construct: the collagenase of the human monocytic stock U937; endogenous in cells; host or cells: U937 human monocytic cell line
T1 sequence (P03956 100-469): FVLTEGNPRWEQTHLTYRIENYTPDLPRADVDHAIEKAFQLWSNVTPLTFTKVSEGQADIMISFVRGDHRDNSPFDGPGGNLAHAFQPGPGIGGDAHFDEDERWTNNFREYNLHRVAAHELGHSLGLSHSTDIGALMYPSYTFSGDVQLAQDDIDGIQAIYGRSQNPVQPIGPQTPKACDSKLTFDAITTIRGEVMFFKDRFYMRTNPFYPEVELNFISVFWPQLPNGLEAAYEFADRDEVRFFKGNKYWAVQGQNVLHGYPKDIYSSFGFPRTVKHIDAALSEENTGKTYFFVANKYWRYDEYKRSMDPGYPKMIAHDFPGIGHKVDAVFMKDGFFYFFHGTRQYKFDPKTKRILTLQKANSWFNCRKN
Protocol: The collagenase was incubated at 27° C. for 16 hours with radiomarked collagen, and its activity was determined by the release of soluble peptides produced by the enzymatic breakdown of the collagen. The inhibiting concentration C150 for each compound was determined by measurement of the activity of the enzyme in the presence of the inhibitor at a concentration ranging between 10^−7 and 10^−12 M (the inhibitor is dissolved at a concentration of 10^−2 M in DMSO, then diluted successively by tenths in the buffer: Tris, HCl 150 mM, pH 7.5; NaCl 0.15 M; CaCl2 10 mM).

[3] = biological target: T2, 72 kDa gelatinase of human origin (Homo sapiens, UniProt P08253); assay: Activity on gelatinase, synthetic substrate; format: biochemical; details: performed on synthetic substrate; read-out: C150 (nM) gelatinase 72 kDa**
T2 sequence (P08253 110-660): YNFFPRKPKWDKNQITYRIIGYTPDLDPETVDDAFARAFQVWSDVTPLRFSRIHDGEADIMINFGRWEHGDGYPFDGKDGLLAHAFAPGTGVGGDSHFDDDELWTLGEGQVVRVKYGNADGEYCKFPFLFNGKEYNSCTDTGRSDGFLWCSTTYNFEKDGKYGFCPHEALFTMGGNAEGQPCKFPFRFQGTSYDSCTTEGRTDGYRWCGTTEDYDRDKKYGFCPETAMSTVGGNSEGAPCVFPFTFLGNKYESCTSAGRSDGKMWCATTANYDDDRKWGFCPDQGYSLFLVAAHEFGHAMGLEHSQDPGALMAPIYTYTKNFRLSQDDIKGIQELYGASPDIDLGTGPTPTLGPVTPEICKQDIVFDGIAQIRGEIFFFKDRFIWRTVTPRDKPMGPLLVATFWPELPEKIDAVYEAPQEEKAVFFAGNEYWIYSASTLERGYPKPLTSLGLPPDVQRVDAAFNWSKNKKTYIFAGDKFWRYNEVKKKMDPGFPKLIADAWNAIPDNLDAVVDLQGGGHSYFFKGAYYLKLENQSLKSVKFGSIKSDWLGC
Protocol: The anti-gelatinase activity of the compounds according to the invention was determined on 72 kDa gelatinase of human origin, in accordance with the operating mode described by Knight, C. G., Willenbrock, F., Murphy, G. (FEBS Letters, 296 (3), 263-266, 1992).
The gelatinase was incubated at 37° C. for 10 minutes, and its activity was determined by the increase in fluorescence of the product of Mca-Pro-Leu breakdown of the Mca-Pro-Leu-Gly-Leu-Dpa-Ala-Arg-NH2 synthetic substrate.
The inhibiting concentration C150 for each compound was determined by measurement of the activity of the enzyme in the presence of the inhibitor at a concentration ranging between 10^−7 and 10^−12 M (the inhibitor is dissolved at a concentration of 10^−2 M in DMSO, then diluted successively by tenths in DMSO to 10^−4 M, then in the buffer: Tris, HCl 50 mM+0.05% Brij 35; CaCl2 10 mM; NaCl 0.15 M).

[4] = biological target: stromelysine of human origin (Homo sapiens, UniProt P08254); assay: Activity on stromelysine; format: biochemical; details: radiomarked transferrin, 37° C., 16 hours; read-out: C150 (nM) stromelysine
Protocol: (§1) The stromelysine was incubated at 37° C. for 16 hours with radiomarked transferrin, and its activity was determined by the release of the soluble peptides produced by the enzymatic breakdown of the transferrin. The inhibiting concentration C150 for each compound was determined by measurement of the activity of the enzyme in the presence of the inhibitor at a concentration ranging between 10^−7 and 10^−12 M (the inhibitor is dissolved in the same manner as for collagenase).

[5] = biological target: 92 kDa gelatinase of human origin (Homo sapiens, UniProt P14780); assay: Activity on gelatinase, radiomarked gelatin; format: biochemical; details: test performed with radiomarked gelatin; read-out: C150 (nM) gelatinase 92 kDa*
Protocol: The anti-gelatinase activity of the compounds according to the invention also was determined on 92 kDa or 72 kDa gelatinase of human origin, in accordance with the operating mode described by Harris, E. D., Krane, S. M.; (Biochem. Biophys. Acta, 258, 566-576, 1972).
as §1, with “gelatinase” for “stromelysine”, “gelatin,” for “transferrin,”, “gelatin.” for “transferrin.”

[6] = system: metalloproteinase (MMP); details: Bioorg. Med. Chem. Letters (1996), 6, 1719-1724; cited from earlier work

Chain of 92 kDa gelatinase of human origin (P14780 94-707): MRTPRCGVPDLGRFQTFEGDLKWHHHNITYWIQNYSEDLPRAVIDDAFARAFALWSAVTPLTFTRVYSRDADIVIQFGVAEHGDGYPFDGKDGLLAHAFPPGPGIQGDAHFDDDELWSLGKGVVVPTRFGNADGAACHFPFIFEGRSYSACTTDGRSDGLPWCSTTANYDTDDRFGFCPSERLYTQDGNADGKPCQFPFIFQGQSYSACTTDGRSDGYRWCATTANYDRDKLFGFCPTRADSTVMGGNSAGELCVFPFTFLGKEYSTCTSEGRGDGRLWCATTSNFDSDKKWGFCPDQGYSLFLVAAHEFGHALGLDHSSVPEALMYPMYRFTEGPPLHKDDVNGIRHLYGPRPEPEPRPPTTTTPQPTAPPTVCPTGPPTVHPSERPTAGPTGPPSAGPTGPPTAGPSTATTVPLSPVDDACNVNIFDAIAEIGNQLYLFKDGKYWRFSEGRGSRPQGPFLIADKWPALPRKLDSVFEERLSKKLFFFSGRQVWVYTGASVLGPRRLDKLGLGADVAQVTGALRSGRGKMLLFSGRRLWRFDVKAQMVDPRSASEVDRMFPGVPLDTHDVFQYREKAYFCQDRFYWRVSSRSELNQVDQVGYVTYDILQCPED
Chain of stromelysine of human origin (P08254 100-477): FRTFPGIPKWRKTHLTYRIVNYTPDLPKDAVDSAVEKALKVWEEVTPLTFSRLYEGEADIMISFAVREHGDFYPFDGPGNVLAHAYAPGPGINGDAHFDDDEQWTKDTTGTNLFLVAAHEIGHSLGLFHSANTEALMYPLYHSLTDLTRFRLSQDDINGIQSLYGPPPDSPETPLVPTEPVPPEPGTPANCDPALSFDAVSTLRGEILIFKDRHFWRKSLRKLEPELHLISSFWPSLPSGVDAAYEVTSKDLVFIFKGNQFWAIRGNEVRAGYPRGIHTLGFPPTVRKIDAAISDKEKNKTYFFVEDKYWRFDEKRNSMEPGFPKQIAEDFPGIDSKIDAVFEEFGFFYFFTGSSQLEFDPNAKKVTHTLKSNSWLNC

Compound	IC50 [1] [µM]	IC50 [2] [nM]	IC50 [3] [nM]	IC50 [4] [nM]	IC50 [5] [nM]	melting point	activity on gem disubstitution, versus compound VII [6]
CNC(=O)[C@H](Cc1ccc(Cl)cc1)NC(=O)[C@](O)(CC(C)C)[C@H](O)C(=O)NO [Example 3, N-2 (S) [(S) hydroxy (S) hydroxycarbamoylmethyl] 2(S) hydroxy 4-methyl pentanoyl L-4-chlorophenylalanine N-methylamide]	3.2	50	6.7	> 1000	54		
CNC(=O)[C@H](Cc1ccccc1)NC(=O)[C@](O)(CC(C)C)[C@H](C)C(=O)NO [Example 4, N-2(S)[1(S)(hydroxycarbamoyl)ethyl] 2(S) hydroxy4-methyl pentanoyl L-phenyl alanine N-methylamide]		36	1.6	29	10	174.2 °C (dec.)	
CNC(=O)[C@H](Cc1ccc(N)cc1)NC(=O)[C@](O)(CC(C)C)[C@H](C)C(=O)NO [Example 9, N-2(S)[1(S) (hydroxycarbamoyl) 1(S)ethyl]2-(S) hydroxy-4-methyl pentanoyl L-4-amino phenylalanine N-methylamide]	2.2	11	1.6	50	2		
CNC(=O)[C@H](Cc1ccc(Br)cc1)NC(=O)[C@](O)(CC(C)C)[C@H](C)C(=O)NO [Example 11, N-2(S)[-1(S)(hydroxycarbamoyl)-1 ethyl]-2(S) hydroxy 4-methyl pentanoyl L-4-bromophenylalanine N-methylamide]	0.61	10	2	37	2	214 °C (dec.)	
CSCCNC(=O)[C@H](Cc1ccc(Cl)cc1)NC(=O)[C@](O)(CC(C)C)[C@H](C)C(=O)NO [Example 13, N-2(S)[-1-(S)(hydroxycarbamoyl)-1 ethyl]-2(S) hydroxy-4-methylpentanoylL-4-chlorophenylalanine N-(2 methylthio-1-ethyl) amide]	0.15	10	1.6	20	0.005		
CNC(=O)[C@H](Cc1ccc(I)cc1)NC(=O)[C@](O)(CC(C)C)[C@H](C)C(=O)NO [Example 14, N-2(S)[1(S) hydroxycarbamoyl-1 ethyl]-2(S) hydroxy 4 methyl pentanoyl L-4-iodophenylalanine N-methylamide]	0.4	2	0.3	12	0.2		
CSCCNC(=O)[C@H](Cc1ccc(I)cc1)NC(=O)[C@](O)(CC(C)C)[C@H](C)C(=O)NO [Example 15, N-2(S)[1(S) hydroxycarbamoyl-1 ethyl]2(S) hydroxy 4-methylpentanoyl L-4-iodophenylalanine N-(2 methylthio-1-ethyl) amide]	4.5	32	1.3	38	0.001		
CNC(=O)[C@H](Cc1ccc(F)cc1)NC(=O)[C@](O)(CC(C)C)[C@H](C)C(=O)NO [Example 16, N-2(S)[1(S)hydroxycarbamoyl-1 ethyl]-2(S) hydroxy 4-methylpentanoyl L-4-fluorophenylalanine N-methylamide]	0.6	14	1.2		2	186.5 °C	
CNC(=O)[C@H](Cc1ccc(Cl)c(Cl)c1)NC(=O)[C@](O)(CC(C)C)[C@H](C)C(=O)NO [Example 18, N-2(S)[1(S)hydroxycarbamoyl-1 ethyl]-2 (S) hydroxy 4-methylpentanoyl L-3,4-dichlorophenylalanine N-methylamide]	≤ 0.14	2	0.4	6	0.002	216 °C (dec.)	
CNC(=O)[C@H](Cc1ccc(OC)cc1)NC(=O)[C@](O)(CC(C)C)[C@H](O)C(=O)NO [Example 29]		26	13		80	199 °C (dec.)	
CNC(=O)[C@H](Cc1ccc(Cl)c(Cl)c1)NC(=O)[C@](O)(CC(C)C)[C@H](O)C(=O)NO [Example 30]	3.6	11		> 1000	7	194.1 °C	
CNC(=O)[C@H](Cc1ccc(OC)cc1)NC(=O)C1(CC(=O)NO)CCc2ccccc21 (stereo partly drawn) [IX]							significant loss of activity
CNC(=O)[C@H](Cc1ccc(OC)cc1)NC(=O)C(C)(CC(=O)NO)c1ccccc1 (stereo partly drawn) [VIII]							significant loss of activity
CNC(=O)[C@H](Cc1ccc(OC)cc1)NC(=O)[C@H](CC(C)C)[C@H](C)C(=O)NO [drawing 111, reference compound]	0.14	5	0.6	10	7		
